# Laboratory results taken from US20260217701A1, “SELECTIVE BET INHIBITORS AND USES THEREOF” (Tay Therapeutics Limited, priority 2022, published 2026).
# Where “and” joins values, the source holds several entries; their conditions need not be identical. Identical values can stand only once.
# Tested on: imiquimod-induced psoriasis
# Experiment: Imiquimod-induced psoriasis model
# Type: in vivo, mice
# Conditions: for Body Weight D1: Day 1 (before treatment start on Day 8); for Body Weight D1 / Body Weight D3 / Body Weight D5 / Body Weight D7 / Body Weight D8 / Body Weight D9 / Body Weight D10 / Body Weight D11 / Body Weight D12 / Body Weight D13 / Body Weight D14 / Body Weight D15 / MBWC D1-D8 / MBWC D8-D15 / PASI Scores: individual animals; for Body Weight D3: Day 3 (before treatment start on Day 8); for Body Weight D5: Day 5 (before treatment start on Day 8); for Body Weight D7: Day 7 (before treatment start on Day 8); for Body Weight D8: Day 8 (first day of treatment); for Body Weight D9: Day 9; for Body Weight D10: Day 10; for Body Weight D11: Day 11; for Body Weight D12: Day 12; for Body Weight D13: Day 13; for Body Weight D14: Day 14; for Body Weight D15: Day 15; for MBWC D1-D8: body weight change Day 1 to Day 8 (before treatment); for MBWC D8-D15: body weight change Day 8 to Day 15 (treatment period); for PASI Scores: IMI + Compound B 1 mg/kg
# Summary of the method: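 Psoriasis-like dermatitis induced in mice by daily dorsal imiquimod cream (Days 1–14); dosing with Compound A (5% DMSO/40% PEG-400/55% saline vehicle) began Day 8. Read-outs: summed 0–4 scores for erythema, induration and peeling daily to Day 15, plus terminal spleen ratio, behaviour and serum cytokines.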
# [1] = IMI + 1 mg/kg, 1 mg/kg, in g (unit assumed)
# [2] = IMI + 3 mg/kg, 3 mg/kg, in g (unit assumed)
# [3] = IMI + 10 mg/kg, 10 mg/kg, in g (unit assumed)
compound,measurement,setting,value
"COCCn1cc(-c2ccccc2)c(-c2cn(C)c(=O)c3[nH]c(-c4cnn(C(F)(F)F)c4)cc23)cc1=O [Compound B, 4-(1-(2-methoxyethyl)-2-oxo-5-phenyl-1,2-dihydropyridin-4-yl)-6-methyl-2-(1-(trifluoromethyl)-1H-pyrazol-4-yl)-1,6-dihydro-7H-pyrrolo[2,3-c]pyridin-7-one]",symptoms by day 15 (representative images),10 mg/kg (printed 10 mg/ml),nearly entirely symptom free
same,"mean PASI score on day 15, dose dependence","1, 3, 10 mg/kg, 10 mg/kg most effective",dose-dependent decrease in PASI scores
same,efficacy on the treatment of psoriasis,2 lowest doses of 1.0 and 3.0 mg/kg bw,moderate efficacy
same,Body Weight D1,"IMI + 1 mg/kg, 1 mg/kg",17.85 and 16.71 and 18.14 (2×) and 17.67 and 18.64 and 18.37 and 17.36
same,Body Weight D3,[1],16.05 and 15.75 and 16.34 and 16.73 and 17.52 and 16.25 and 15.31 and 17.36
same,Body Weight D5,[1],15.71 and 15.27 and 17.54 and 16.77 and 17.97 and 16.83 and 15.98 and 16.57
same,Body Weight D7,[1],16.02 and 15.76 and 17.96 and 17.02 and 17.69 and 17.48 and 16.75 and 17.68
same,Body Weight D8,[1],15.83 and 15.34 and 17.54 and 16.58 and 17.61 and 16.23 and 16.35 and 17.45
same,Body Weight D9,[1],15.70 and 15.29 and 17.68 and 16.64 and 17.26 and 15.94 and 16.69 and 17.21
same,Body Weight D10,[1],15.94 and 15.03 and 17.60 and 16.38 and 17.13 and 16.08 and 15.92 and 17.66
same,Body Weight D11,[1],16.10 and 14.61 and 17.64 and 16.08 and 17.41 and 16.29 and 16.64 and 17.72
same,Body Weight D12,[1],16.03 and 14.93 and 17.80 and 16.29 and 17.39 and 16.49 and 16.17 and 17.53
same,Body Weight D13,"IMI + 1 mg/kg, 1 mg/kg",16.53 and 14.84 and 18.05 and 16.45 (2×) and 17.04 (2×) and 16.34
same,Body Weight D14,[1],16.38 and 14.75 and 18.20 and 16.97 and 17.80 and 16.16 and 16.37 and 17.46
same,Body Weight D15,[1],16.34 and 14.67 and 18.01 and 16.62 and 17.29 and 16.44 and 16.12 and 17.36
same,MBWC D1-D8,"IMI + 1 mg/kg, 1 mg/kg",−2.02 and −1.37 and −0.60 and −1.09 and −1.03 and −2.14 and −1.01 and −0.69
same,MBWC D8-D15,"IMI + 1 mg/kg, 1 mg/kg",0.51 and −0.67 and 0.47 and 0.04 and −0.32 and 0.21 and −0.23 and −0.09
same,Body Weight D1,[2],16.04 and 18.93 and 17.71 and 17.81 and 16.63 and 17.34 and 17.52 and 18.08
same,Body Weight D3,[2],13.11 and 16.65 and 15.84 and 16.79 and 15.99 and 16.64 and 14.93 and 16.90
same,Body Weight D5,[2],14.01 and 16.29 and 15.26 and 17.65 and 16.66 and 17.47 and 16.35 and 16.80
same,Body Weight D7,[2],14.25 and 16.26 and 15.31 and 17.34 and 16.40 and 17.79 and 16.44 and 16.80
same,Body Weight D8,"IMI + 3 mg/kg, 3 mg/kg",13.57 and 15.67 and 15.44 and 17.59 and 16.51 (2×) and 17.07 and 16.13
same,Body Weight D9,[2],13.93 and 15.56 and 15.22 and 17.78 and 16.23 and 17.14 and 15.89 and 16.28
same,Body Weight D10,"IMI + 3 mg/kg, 3 mg/kg",14.23 and 15.76 (2×) and 17.87 and 16.28 and 17.32 and 15.99 and 16.22
same,Body Weight D11,[2],13.97 and 16.26 and 15.22 and 17.70 and 16.63 and 16.90 and 16.81 and 17.13
same,Body Weight D12,[2],14.44 and 16.57 and 15.46 and 17.60 and 17.05 and 16.97 and 16.65 and 17.68
same,Body Weight D13,[2],13.94 and 16.60 and 15.54 and 17.74 and 16.71 and 17.05 and 16.35 and 17.58
same,Body Weight D14,[2],13.70 and 16.12 and 15.70 and 17.96 and 17.04 and 17.47 and 16.08 and 17.19
same,Body Weight D15,"IMI + 3 mg/kg, 3 mg/kg",13.78 and 16.88 and 15.93 and 18.05 and 17.29 (2×) and 17.08 and 15.94
same,MBWC D1-D8,"IMI + 3 mg/kg, 3 mg/kg",−2.47 and −3.26 and −2.27 and −0.22 and −0.12 and −0.27 and −1.39 and −1.57
same,MBWC D8-D15,"IMI + 3 mg/kg, 3 mg/kg",0.21 and 1.21 and 0.49 and 0.46 and 0.78 (2×) and 0.01 and −0.19
same,Body Weight D1,[3],18.66 and 16.97 and 17.99 and 16.59 and 14.70 and 18.45 and 16.88 and 17.79
same,Body Weight D3,"IMI + 10 mg/kg, 10 mg/kg",16.89 and 15.12 (2×) and 16.64 and 15.35 and 12.66 and 15.18 and 15.47
same,Body Weight D5,[3],16.85 and 16.05 and 17.14 and 16.55 and 13.95 and 16.19 and 15.85 and 16.46
same,Body Weight D7,"IMI + 10 mg/kg, 10 mg/kg",17.09 and 15.74 and 18.31 and 16.60 and 14.04 and 16.64 (2×) and 16.00
same,Body Weight D8,[3],16.51 and 15.56 and 18.14 and 16.14 and 14.02 and 16.16 and 15.50 and 16.26
same,Body Weight D9,[3],16.61 and 15.20 and 17.85 and 15.85 and 13.92 and 15.86 and 15.31 and 16.41
same,Body Weight D10,[3],16.48 and 15.64 and 18.33 and 16.10 and 13.59 and 15.70 and 15.00 and 15.80
same,Body Weight D11,[3],16.44 and 15.87 and 17.94 and 16.30 and 14.37 and 16.54 and 16.26 and 16.95
same,Body Weight D12,[3],16.63 and 16.40 and 18.54 and 16.96 and 14.74 and 16.69 and 16.23 and 17.34
same,Body Weight D13,[3],17.12 and 16.52 and 18.44 and 16.93 and 14.68 and 16.17 and 16.27 and 16.95
same,Body Weight D14,[3],17.36 and 16.91 and 18.32 and 17.28 and 15.12 and 16.21 and 16.48 and 17.35
same,Body Weight D15,[3],18.01 and 16.93 and 18.51 and 17.31 and 15.47 and 16.86 and 16.66 and 17.96
same,MBWC D1-D8,"IMI + 10 mg/kg, 10 mg/kg",−2.15 and −1.41 and 0.15 and −0.45 and −0.68 and −2.29 and −1.38 and −1.53
same,MBWC D8-D15,"IMI + 10 mg/kg, 10 mg/kg",1.50 and 1.37 and 0.37 and 1.17 and 1.45 and 0.70 and 1.16 and 1.70
same,PASI Scores,D8 (day treatment started),7 (2×) and 6 (3×) and 8 (3×)
same,PASI Scores,D9,8 (3×) and 9 and 5 (3×) and 6
same,PASI Scores,D10,6 (4×) and 5 (2×) and 7 (2×)
same,PASI Scores,D11,8 and 6 (4×) and 4 and 7 and 9
same,PASI Scores,D12,6 (6×) and 4 and 5
